In patent US11266650B2, “Pharmaceutical composition for preventing and treating nonalcoholic steatohepatitis, hepatic fibrosis, and liver cirrhosis, comprising adenosine derivatives” (FUTURE MEDICINE CO., LTD., priority 2016, dated 2022):
Where “and” joins values, the source holds several entries; their conditions need not be identical. Equal entries are not always repeated.

Assays:
Kinetic solubility = assay type: physicochemical; details: kinetic from dmso stock
Equilibrium solubility = assay type: physicochemical; details: thermodynamic from solid
Log P = assay type: physicochemical
pKa = assay type: physicochemical
PAMPA = assay type: in vitro ADME
[1] = Plasma stability, rat plasma; assay type: in vitro ADME
Procedure: (§1) Plasma stability and protein binding were measured using rat and human plasma.

[2] = Plasma stability, human plasma; assay type: in vitro ADME
Procedure: as §1

[3] = Plasma protein binding, rat plasma; assay type: in vitro ADME
Procedure: as §1

[4] = Plasma protein binding, human plasma; assay type: in vitro ADME
Procedure: as §1

[5] = Pharmacokinetic test in SD male rats (Experimental Examples 11, 12, 15); assay type: in vivo; details: plasma, rat; for Vd: read-out: Vss; for bioavailability: read-out: Ft (bioavailability)
Procedure: (§2) Intravenous administration was performed through a tube inserted into the femoral vein, and oral administration was performed using oral gavage.
(§3) After the administration, the experimental animals' blood was taken at predetermined time intervals for 24 hours. Then, the blood was centrifuged to separate plasma. The plasma samples were pretreated with a suitable organic solvent, and then the concentration of the plasma samples was analyzed by LC-MS/MS. […] The results of noncompartmental pharmacokinetic parameters calculated from the blood concentration-time data are shown in Tables 9 through 13. In FIGS. 12 through 16, I.V. represents an intravenous administration group, P.O. represents an oral administration group, and the definition of each parameter in Tables 9 through 13 is shown in Table 14.

[6] = Pharmacokinetic test in ICR male mice (Experimental Example 13); assay type: in vivo; details: mouse, plasma, po, P.O., 10 mg/kg
Procedure: as §2, §3

[7] = Pharmacokinetic test in dogs (Experimental Example 14); assay type: in vivo; details: dog, plasma; for bioavailability: read-out: Ft (bioavailability)
Procedure: as §2, §3

each cell line = experiment: Cytotoxicity, Cyto X cell viability assay kit; assay type: cell-based
hERG channel protein = hERG channel protein (Homo sapiens, UniProt Q12809); experiment: hERG ligand binding assay (fluorescence polarization)
[8] = system: histidine-requiring Salmonella (strains TA98, TA100, TA1535 and TA1537) and tryptophan-requiring Escherichia coli (strain WP2uvrA (pKM101)); assay type: cell-based
Text: In addition, for each strain, the number of back-mutant colonies in the positive control group certainly exceeded twice the number of back-mutant colonies in the negative control group.

rats [9] = details: rat, in vivo
rats [10] = experiment: Single-dose toxicity in rats; details: rat, in vivo
ICR mice = experiment: Toxicity assay, intraperitoneal injection, mice; details: i.p. 20, 10 and 1 mg/kg
Procedure: (§4) The compounds synthesized in the examples of the present invention were assayed for cytotoxicity in animals.

SPF Sprague Dawley rats = experiment: Toxicity assay, intraperitoneal injection, rats; details: i.p. 20, 10 and 1 mg/kg
Procedure: as §4

[11] = po, 5 mg/kg, P.O., 5 mg/kg (Exp. 11-2)
[12] = po, 10 mg/kg, 10 mg/kg (Exp. 12-2)
[13] = po, 10 mg/kg, oral 10 mg/kg in 0.5% MC (Exp. 15-1)
[14] = po, 10 mg/kg, oral 10 mg/kg in Vehicle: 5% DMSO, 40% PEG400 and 55% DW (Exp. 15-2)
[15] = po, 10 mg/kg, G2, PO, dissolved in a solvent
[16] = po, 10 mg/kg, G3, PO, powder state in a capsule

hERG channel protein, sequence (Q12809 whole entry): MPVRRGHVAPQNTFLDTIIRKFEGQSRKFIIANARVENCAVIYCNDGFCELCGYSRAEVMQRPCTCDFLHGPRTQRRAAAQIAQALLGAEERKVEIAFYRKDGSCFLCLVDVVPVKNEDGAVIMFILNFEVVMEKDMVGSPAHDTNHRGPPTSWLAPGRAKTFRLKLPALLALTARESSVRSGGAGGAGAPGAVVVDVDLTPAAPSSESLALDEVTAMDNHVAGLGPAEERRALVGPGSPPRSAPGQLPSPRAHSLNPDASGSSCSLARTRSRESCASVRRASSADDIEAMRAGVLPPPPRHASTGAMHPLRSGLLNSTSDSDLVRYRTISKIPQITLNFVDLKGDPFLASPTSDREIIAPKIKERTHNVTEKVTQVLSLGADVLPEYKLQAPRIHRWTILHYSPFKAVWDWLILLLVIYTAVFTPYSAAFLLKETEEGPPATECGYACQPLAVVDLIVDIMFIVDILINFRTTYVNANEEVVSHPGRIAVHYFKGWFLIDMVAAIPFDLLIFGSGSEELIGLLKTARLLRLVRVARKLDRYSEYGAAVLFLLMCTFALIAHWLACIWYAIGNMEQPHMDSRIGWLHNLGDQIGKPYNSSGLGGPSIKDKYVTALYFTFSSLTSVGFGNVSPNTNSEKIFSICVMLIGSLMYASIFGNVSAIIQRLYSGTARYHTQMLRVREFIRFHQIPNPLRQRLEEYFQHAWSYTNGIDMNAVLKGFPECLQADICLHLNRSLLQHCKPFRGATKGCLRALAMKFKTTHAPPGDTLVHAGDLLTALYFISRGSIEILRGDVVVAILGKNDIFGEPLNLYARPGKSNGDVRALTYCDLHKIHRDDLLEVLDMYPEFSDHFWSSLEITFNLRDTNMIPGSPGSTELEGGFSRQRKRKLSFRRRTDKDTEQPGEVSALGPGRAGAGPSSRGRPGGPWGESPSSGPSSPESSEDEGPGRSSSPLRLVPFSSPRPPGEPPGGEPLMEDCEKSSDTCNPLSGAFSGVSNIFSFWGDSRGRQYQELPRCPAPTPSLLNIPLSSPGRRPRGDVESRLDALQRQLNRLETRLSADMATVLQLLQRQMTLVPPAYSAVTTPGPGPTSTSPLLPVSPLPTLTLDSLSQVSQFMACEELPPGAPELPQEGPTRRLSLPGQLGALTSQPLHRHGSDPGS

SMILES: O[C@@H]1[C@H](O)CS[C@H]1n1cnc2c(NCc3cccc(Cl)c3)nc(Cl)nc21 [Example 2, (2R,3R,4S)-2-(2-Chloro-6-(3-chlorobenzylamino)-9H-purin-9-yl)tetrahydrothiophen-3,4-diol]
- solubility kinetic (Kinetic solubility): 361 µM and 149 µg/mL
- solubility thermodynamic (Equilibrium solubility): 6.7 µM and 2.76 µg/mL
- logP (Log P): 3.18
- pKa (pKa): 11.3
- PAMPA (PAMPA): −4.49
- Plasma stability [1]: > 99.9%
- Plasma stability [2]: 98.9%
- fraction unbound [3]: 0.098
- fraction unbound [4]: 0.013
- clearance ([5]; iv, I.V., 5 mg/kg): 6.05 mL/min/kg
- Vd ([5]; iv, I.V., 5 mg/kg): 0.881 ± 0.203 L/kg
- bioavailability ([5]; po, P.O., 5 mg/kg): 49.7%
- clearance ([5]; IV, 2 mg/kg): 6.08 mL/min/kg
- Vd ([5]; IV, 2 mg/kg): 2.27 ± 0.863 L/kg
- bioavailability ([5]; PO, 10 mg/kg (Exp. 12-2)): > 99.9%
- AUC(0-inf) ([5]; iv, 2 mg/kg): 5490 ± 300 ng·h/mL
- AUC(0-t) ([5]; iv, 2 mg/kg): 5200 ± 548 ng·h/mL
- half-life ([5]; iv, 2 mg/kg, 2 mg/kg (Exp. 12-1)): 6 ± 2.98 h
- AUC(0-inf) ([5]; iv, 5 mg/kg, I.V.): 14100 ± 2590 ng·h/mL
- AUC(0-t) ([5]; iv, 5 mg/kg, I.V.): 14000 ± 2550 ng·h/mL
- half-life ([5]; iv, 5 mg/kg, I.V., 5 mg/kg (Exp. 11-1)): 3.6 ± 0.589 h
- AUC(0-inf) ([5]; po, 5 mg/kg, P.O.): 7040 ± 551 ng·h/mL
- AUC(0-t) ([5]; po, 5 mg/kg, P.O.): 6980 ± 584 ng·h/mL
- Cmax [5, 11]: 1450 ± 255 ng/mL
- Tmax [5, 11]: 1.33 ± 0.577 h
- half-life [5, 11]: 3.26 ± 0.945 h
- AUC(0-inf) [5, 12]: 26700 ± 75 ng·h/mL
- AUC(0-t) [5, 12]: 26500 ± 5880 ng·h/mL
- Cmax [5, 12]: 2710 ± 183 ng/mL
- Tmax [5, 12]: 2.42 ± 3.13 h
- half-life [5, 12]: 3.34 ± 0.075 h
- AUC(0-inf) [5, 13]: 41400 ± 26000 ng·h/mL
- AUC(0-t) [5, 13]: 40100 ± 26800 ng·h/mL
- Cmax [5, 13]: 5720 ± 6110 ng/mL
- Tmax [5, 13]: 1.33 ± 0.58 h
- half-life [5, 13]: 4.56 ± 2.8 h
- AUC(0-inf) [5, 14]: 26700 ± 75 ng·h/mL
- AUC(0-t) [5, 14]: 26500 ± 5880 ng·h/mL
- Cmax [5, 14]: 2710 ± 183 ng/mL
- Tmax [5, 14]: 2.42 ± 3.13 h
- half-life [5, 14]: 3.34 ± 0.075 h
- AUC(0-inf) [6]: 102000 ± 13500 ng·h/mL
- AUC(0-t) [6]: 100000 ± 13200 ng·h/mL
- Cmax [6]: 8570 ± 1520 ng/mL
- Tmax [6]: 6.13 ± 3.75 h
- half-life [6]: 3.61 ± 0.3 h
- AUC(0-inf) ([7]; iv, 2 mg/kg, G1, IV): 1070 ± 620 ng·h/mL
- AUC(0-t) ([7]; iv, 2 mg/kg, G1, IV): 948 ± 464 ng·h/mL
- half-life ([7]; iv, 2 mg/kg, G1, IV): 2.17 ± 0.867 h
- bioavailability ([7]; po, 10 mg/kg, G2, PO, 10 mg/kg, dissolved in a solvent): 82%
- AUC(0-inf) [7, 15]: 3990 ± 1090 ng·h/mL
- AUC(0-t) [7, 15]: 3880 ± 1030 ng·h/mL
- Cmax [7, 15]: 467 ± 73 ng/mL
- Tmax [7, 15]: 1.67 ± 0.58 h
- half-life [7, 15]: 4.21 ± 1.41 h
- bioavailability ([7]; po, 10 mg/kg, G3, PO, 10 mg/kg, powder state in a capsule): > 99.9%
- AUC(0-inf) [7, 16]: 6350 ± 830 ng·h/mL
- AUC(0-t) [7, 16]: 5640 ± 840 ng·h/mL
- Cmax [7, 16]: 1140 ± 230 ng/mL
- Tmax [7, 16]: 2 h
- half-life [7, 16]: 5.53 ± 3.06 h
- clearance ([7]; G1, IV, 2 mg/kg): 37.8 mL/min/kg
- Vd ([7]; G1, IV, 2 mg/kg, read-out: Vss): 6.02 ± 0.79 L/kg
- Toxicity, Cytotoxicity evaluation (each cell line): Not detected
- IC50 (each cell line; each cell line): ≥ 10 µM
- Toxicity, hERG ligand binding assay evaluation (hERG channel protein): Not detected
- inhibition rate, hERG ligand binding (hERG channel protein; 10 μM of the compound): ≤ 50%
- Toxicity, Genotoxicity evaluation [8]: Not detected
- number of back-mutant colonies vs negative control group ([8]; all doses of each strain, with and without metabolic activation): did not exceed twice the number of back-mutant colonies of the negative control group
- death after single dose (rats [9]): no animals died
- Toxicity, Single-dose toxicity evaluation (rats [10]): Not detected
- weight gain or feed intake vs control group (ICR mice): No difference in weight gain or feed intake
- death (ICR mice; 24 hrs observation): No death was observed
- weight gain or feed intake vs control group (SPF Sprague Dawley rats): No difference in weight gain or feed intake
- death (SPF Sprague Dawley rats; 24 hrs observation): No death was observed
